Source: ChEMBL document CHEMBL5149973, “Agaricus bisporus-Derived Glucosamine Hydrochloride Facilitates Skeletal Injury Repair through Bmp Signaling in Zebrafish Osteoporosis Model” (J Nat Prod, 2021)
Activity calls are given as the source filed them. The calls are words filed in the database; no cut-off is given here.

Experiments:
Danio rerio [1] = species: Danio rerio; assay: Anti-osteoporosis activity in FAC-induced skeletal injury Zebrafish larvae assessed as increase in Col10a1a mRNA expression level measured for 10 day post fertilization by semiquantitative-PCR analysis; type: functional, organism-based; conditions: Larva
Danio rerio [2] = species: Danio rerio; assay: Suppression of Bmp signaling in Zebrafish embryos assessed as decrease in Sox9a gene expression level at 0.1 % measured at 26 hrs post fertilization by semiquantitative PCR analysis; type: functional, tissue-based; conditions: Embryo
Osteoblast [3] = assay: Induction of osteoblast differentiation in Zebrafish embryo assessed as upregulation of runx2b gene expression in operculum measured at 0.75 to 72 hrs post fertilization at 0.05 to 0.3 % by […] analysis; type: functional, tissue-based; conditions: Danio rerio, dose 0.05-0.3 %, time 0.75-72 hrs
Osteoblast [4] = assay: Induction of osteoblast differentiation in transgenic osx mCherry Zebrafish embryo assessed as increase in Sox9b mRNA expression in fin at 0.1 % measured after 15 days by semiquantitative PCR analysis; type: functional, tissue-based; conditions: Danio rerio, time 15.0 day
Danio rerio [5] = species: Danio rerio; assay: Induction of Zebrafish embryo skeletal development assessed as increase in Smad1 gene expression level in spine at 0.1 % measured for 0.75 to 24 hrs post fertilization by ISH analysis; type: functional, tissue-based; conditions: time 0.75-24 hrs
Danio rerio [6] = species: Danio rerio; assay: Induction of Zebrafish embryo skeletal development assessed as increase in Bmp2b mRNA expression level in gastrula stage at 0.05 to 0.1 % measured at 24 hrs post fertilization by ISH analysis; type: functional, tissue-based; conditions: dose 0.05-0.1 %
Danio rerio [7] = species: Danio rerio; assay: Induction of Zebrafish embryo skeletal development assessed as upregulation of col10a1a gene expression in palatoquadrate at 0.01 to 0.3 % measured after 72 hrs post fertilization by […] analysis; type: functional, tissue-based; conditions: dose 0.01-0.3 %
Danio rerio [8] = species: Danio rerio; assay: Anti-osteoporosis activity in FAC-induced skeletal injury Zebrafish larvae assessed as increase in Sox9b mRNA expression level measured for 10 day post fertilization by semiquantitative-PCR analysis; type: functional, organism-based; conditions: Larva
Danio rerio [9] = species: Danio rerio; assay: Induction of Zebrafish embryo skeletal development assessed as upregulation of col10a1a gene expression in branchiostegal at 0.01 to 0.3 % measured after 72 hrs post fertilization by […] analysis; type: functional; conditions: dose 0.01-0.3 %
Danio rerio [10] = species: Danio rerio; assay: Induction of Zebrafish embryo skeletal development assessed as nuclear localization of p-Smad1 in head at 0.1 % measured at 24 to 72 hrs post fertilization by DAPI staining based analysis; type: functional, tissue-based; conditions: time 24-72 hrs
[11] = Induction of Zebrafish embryo skeletal development assessed as mortality rate of embryo at 0.01 % measured after 72 hrs post fertilization by Alcian blue staining based assay; type: functional, Danio rerio
[12] = Induction of Zebrafish embryo skeletal development assessed as mortality rate of embryo at 0.03 % measured after 72 hrs post fertilization by Alcian blue staining based assay; type: functional, Danio rerio
Osteoblast [13] = assay: Induction of osteoblast differentiation in transgenic osx mCherry Zebrafish embryo assessed as increase in Sox9a mRNA expression in fin at 0.1 % measured after 15 days by semiquantitative PCR analysis; type: functional, tissue-based; conditions: Danio rerio, time 15.0 day
Danio rerio [14] = species: Danio rerio; assay: Induction of Zebrafish embryo skeletal development assessed as increase in Bmp2b mRNA expression level expanded from ventral side to dorsal side at 0.1 to 0.3 % measured at 24 hrs post fertilization by ISH analysis; type: functional, tissue-based; conditions: dose 0.1-0.3 %
Danio rerio [15] = species: Danio rerio; assay: Induction of Zebrafish embryo skeletal development assessed as increase in Bmp4 mRNA expression level in head at 0.1 to 0.3 % measured at 24 hrs post fertilization by ISH analysis; type: functional, tissue-based; conditions: dose 0.1-0.3 %
[16] = Induction of Zebrafish Larva cartilage development assessed as increase in H1 phenotype ratio at 0.1 % measured after 5 days post fertilization by Alcian blue staining based assay; type: functional, Danio rerio; conditions: time 5 day
[17] = Induction of Zebrafish Larva cartilage development assessed as increase in H2 phenotype ratio at 0.3 % measured after 5 days post fertilization by Alcian blue staining based assay; type: functional, Danio rerio; conditions: time 5 day
Danio rerio [18] = species: Danio rerio; assay: Anti-osteoporosis activity in FAC-induced skeletal injury Zebrafish assessed as rescue of skeletal density in caudal fins at 0.1 % measured for 10 day post fertilization; type: functional, organism-based
Danio rerio [19] = species: Danio rerio; assay: Induction of Zebrafish embryo skeletal development assessed as increase in Smad5 gene expression level in head at 0.1 % measured for 0.75 to 24 hrs post fertilization by ISH analysis; type: functional, tissue-based; conditions: time 0.75-24 hrs
Danio rerio [20] = species: Danio rerio; assay: Anti-osteoporosis activity in FAC-induced skeletal injury Zebrafish assessed as rescue of skeletal density in spine at 0.1 % measured for 10 day post fertilization; type: functional, organism-based
Osteoblast [21] = assay: Induction of osteoblast differentiation in transgenic osx mCherry Zebrafish embryo assessed as increase in Col10a1a mRNA expression in fin at 0.1 % measured after 15 days by semiquantitative PCR analysis; type: functional; conditions: Danio rerio, time 15.0 day
Danio rerio [22] = species: Danio rerio; assay: Suppression of Bmp signaling in Zebrafish embryo assessed as reduction in slight loss of tail tissue at 0.1 % measured at 26 hrs post fertilization in presence of dorsomorphin; type: functional; design: scale not given: the % may be the effect or the level left
Danio rerio [23] = species: Danio rerio; assay: Induction of Zebrafish embryo skeletal development assessed as increase in Bmp2b mRNA expression level in head at 0.1 % measured at 72 hrs post fertilization; type: functional, tissue-based
Osteoblast [24] = assay: Induction of osteoblast differentiation in Zebrafish embryo assessed as upregulation of runx2b gene expression in head measured at 0.75 to 72 hrs post fertilization at 0.05 to 0.3 % by […] analysis; type: functional; conditions: Danio rerio, dose 0.05-0.3 %, time 0.75-72 hrs
Danio rerio [25] = species: Danio rerio; assay: Induction of Zebrafish embryo skeletal development assessed as upregulation of col10a1a gene expression in operculum at 0.01 to 0.3 % measured after 72 hrs post fertilization by […] analysis; type: functional; conditions: dose 0.01-0.3 %
Danio rerio [26] = species: Danio rerio; assay: Suppression of Bmp signaling in Zebrafish embryos assessed as decrease in Bmp2b gene expression level at 0.1 % measured at 26 hrs post fertilization by semiquantitative PCR analysis; type: functional, tissue-based; conditions: Embryo
[27] = Induction of Zebrafish embryo skeletal development assessed as mortality rate of embryo at 0.3 % measured after 72 hrs post fertilization by Alcian blue staining based assay; type: functional, Danio rerio
Danio rerio [28] = species: Danio rerio; assay: Induction of Zebrafish embryo skeletal development assessed as increase in Bmp7a mRNA expression level in gastrula stage at 0.05 to 0.1 % measured at 24 hrs post fertilization by ISH analysis; type: functional, tissue-based; conditions: dose 0.05-0.1 %
[29] = Induction of Zebrafish Larva caudal fin regeneration measured for 15 days by Calcein staining based assay; type: functional, Danio rerio; conditions: time 15 day
Danio rerio [30] = species: Danio rerio; assay: Suppression of Bmp signaling in Zebrafish embryos assessed as decrease in sp7 gene expression level at 0.1 % measured at 26 hrs post fertilization by semiquantitative PCR analysis; type: functional, tissue-based; conditions: Embryo
[31] = Induction of Zebrafish Larva cartilage development assessed as increase in bone mineralization at 0.3 % measured at 6 days post fertilization by Alizarin red staining based assay; type: functional, Danio rerio; conditions: time 6 day
[32] = Induction of Zebrafish embryo skeletal development assessed as mortality rate of embryo at 0.1 % measured after 72 hrs post fertilization by Alcian blue staining based assay; type: functional, Danio rerio
Danio rerio [33] = species: Danio rerio; assay: Anti-osteoporosis activity in FAC-induced skeletal injury Zebrafish assessed as increase in cumulative bone optical density in caudal fins at 0.1 % measured for 10 day post fertilization; type: functional, organism-based
Danio rerio [34] = species: Danio rerio; assay: Induction of Zebrafish embryo skeletal development assessed as upregulation of col10a1a gene expression in head bone at 0.01 to 0.3 % measured after 72 hrs post fertilization by […] analysis; type: functional, tissue-based; conditions: dose 0.01-0.3 %
Danio rerio [35] = species: Danio rerio; assay: Anti-osteoporosis activity in FAC-induced skeletal injury Zebrafish larvae assessed as increase in Sox9a mRNA expression level measured for 10 day post fertilization by semiquantitative-PCR analysis; type: functional, organism-based; conditions: Larva

## Cl.N[C@@H]1[C@@H](O)[C@H](O)[C@@H](CO)O[C@H]1O
Danio rerio [1]
  Activity: Active
Danio rerio [2]
  Activity: Active
Osteoblast [3]
  Activity: Active
Osteoblast [4]
  Activity: Active
Danio rerio [5]
  Activity: Active
Danio rerio [6]
  Activity: Active
Danio rerio [7]
  Activity: Active
Danio rerio [8]
  Activity: Active
Danio rerio [9]
  Activity: Active
Danio rerio [10]
  Activity: Active
[11]
  Activity: 12%
[12]
  Activity: 16%
Osteoblast [13]
  Activity: Active
Danio rerio [14]
  Activity: Active
Danio rerio [15]
  Activity: Active
[16]
  Activity: 40%
[17]
  Activity: 50%
Danio rerio [18]
  Activity: Active
Danio rerio [19]
  Activity: Active
Danio rerio [20]
  Activity: Active
Osteoblast [21]
  Activity: Active
Danio rerio [22]
  Activity: 50%
Danio rerio [23]
  Activity: Active
Osteoblast [24]
  Activity: Active
Danio rerio [25]
  Activity: Active
Danio rerio [26]
  Activity: Active
[27]
  Activity: 28%
Danio rerio [28]
  Activity: Active
[29]
  Activity: 50%
Danio rerio [30]
  Activity: Active
[31]
  Activity: 79%
[32]
  Activity: 24%
Danio rerio [33]
  Activity: Active
Danio rerio [34]
  Activity: Active
Danio rerio [35]
  Activity: Active
